{"source": "paper PMC7238232", "about": "“Acamprosate Is a Substrate of the Human Organic Anion Transporter (OAT) 1 without OAT3 Inhibitory Properties: Implications for Renal Acamprosate Secretion and Drug–Drug Interactions” (Pharmaceutics, 2020)", "biological_target": "T1, OAT3 (Homo sapiens, UniProt Q8TCC7)", "T1 sequence (Q8TCC7 1-542)": "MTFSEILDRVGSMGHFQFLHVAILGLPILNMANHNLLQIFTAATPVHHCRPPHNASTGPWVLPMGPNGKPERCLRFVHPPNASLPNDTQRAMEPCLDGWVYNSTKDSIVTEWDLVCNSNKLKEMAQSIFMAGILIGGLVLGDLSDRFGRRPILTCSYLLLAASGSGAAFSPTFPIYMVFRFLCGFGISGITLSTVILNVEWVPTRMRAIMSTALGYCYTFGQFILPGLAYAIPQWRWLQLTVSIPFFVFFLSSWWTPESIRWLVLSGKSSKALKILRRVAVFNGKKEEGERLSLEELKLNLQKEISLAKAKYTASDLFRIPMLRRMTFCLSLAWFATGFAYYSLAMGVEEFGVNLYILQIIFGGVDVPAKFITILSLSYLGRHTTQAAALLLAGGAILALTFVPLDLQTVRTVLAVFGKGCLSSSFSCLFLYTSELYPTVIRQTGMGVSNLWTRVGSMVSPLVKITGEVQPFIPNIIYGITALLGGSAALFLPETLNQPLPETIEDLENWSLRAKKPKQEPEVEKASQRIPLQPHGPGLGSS", "test": "[3H]-E3S uptake and its inhibition in HEK293-Flp-In OAT3 cells", "assay_type": "cell-based", "procedure": "All uptake experiments were performed on 24- or 96-well plates. Before the experiment initiation, the cells were incubated with either 500 or 200 µL∙well^−1 prewarmed buffer for 10 min at 37 °C in a microplate incubator (VWR International AB, Stockholm, Sweden), without shaking. […] The experiment was stopped by adding 200 µL∙well^−1 of ice-cold buffer and subsequent rinse three times with the same amount of buffer. In Lab. 1 the sample analysis of the OAT1/OAT3/mock studies consisted in removing the rinsing buffer and lysing the cells with 70 µL 1M NaOH, following by incubation for 60 min at 37 °C and 100 rpm. A total of 50 µL of cell lysate from each well was transferred to 96-well Luma plates bottom coated with dry scintillant. Then, 2∙20 µL of each donor and three 50 µL blank samples were applied on the same plate. The dry plates were covered with transparent seals and analyzed using a TopCount NXT Microplate Scintillation and Luminescence Counter (Perkin Elmer, Waltham, MA, USA). The remaining 20 µL cell lysate was neutralized with 20 µL 1M HCl∙well^−1, samples were mixed thoroughly and the total protein content in all the wells was measured using a BCA protein assay kit, microplate method, and a Tecan Safire II fluorometer (Tecan Austria GmbH, Grödig, Austria). For the experiments in Lab. 2, the cells were lysed by adding 200 µL 0.1% Triton X-100 and incubated for 5 min at 37 °C and 100 rpm. […] The total protein content was measured by using a BCA protein assay kit and a FLUOStar Omega fluorescence microplate reader (BMG Labtech, Ortenberg, Germany). The protein assay for the OAT3 and mock cell lines was performed in four independent wells of each cell line, seeded and treated in the same manner as the cells used in the uptake assay. For all the OAT1, OAT3, and mock isotope uptake studies, the radiolabelled tracer accumulation (pmol) in each well was calculated by first determining the activity of the isotope (DPM∙pmol^−1) from the radioactivity (DPM) of the donor sample divided by the theoretical isotope concentration (pmol), then dividing the total radioactivity in the well (DPM) to the specific activity of the isotope (DPM∙pmol^−1).\nA range of preincubation solutions was prepared at the same concentrations of acamprosate applied in the inhibition assays. Acamprosate was dissolved in HBSS buffered with 10 mM HEPES and the pH was adjusted to 7.40 ± 0.01. The preincubation solutions were prewarmed to 37 °C and applied to the corresponding cells after removing the cell growth medium. The preincubation was done for 3 h, at 37 °C, without shaking. After the preincubation, the solutions were removed, and the inhibition experiment was performed as described in the Section 2.6.\nThe obtained intracellular amounts (pmol) were normalized to the assay time (min) and cell surface area (cm^2) or protein amount (mg protein) to obtain a term hereafter referred to as uptake rate. […] Assuming competitive interaction, equilibrium dissociation constants, Ki, were calculated from the IC50 value for each substrate/inhibitor pair, at substrate Km, using the Cheng–Prusoff equation [24].", "note": "Entries after “also recorded” stand apart in the source; their conditions may differ. Like-named read-outs stand apart in the source and are kept apart here.", "data": [{"smiles": "CC(=O)NCCCS(=O)(=O)O", "note": "[acamprosate, acetylhomotaurinate]", "values": [{"measurement": "IC50", "value": "> 10", "unit": "mM"}, {"measurement": "effect on uptake of [3H]-E3S in OAT3 expressing cells", "setting": "0.02 µM [3H]-E3S, 200 µM E3S, 300 µM probenecid, 1000 or 10,000 µM acamprosate, Lab. 2", "value": "did not affect"}, {"measurement": "inhibition of [3H]-E3S uptake via OAT3, with and without 3 h preincubation", "setting": "all applied acamprosate concentrations, up to 10 mM", "value": "lack of inhibitory effect; also recorded: did not inhibit"}, {"measurement": "IC50", "setting": "read-out: IC50, Estrone-3-Sulfate, input for DDI index, Table A1", "value": "> 10", "unit": "mM"}]}]}
